The test system of test [1] is primary cortical neurons. The format is cell-based.
In test [2] the test system is primary cortical neurons. The class given is cell-based. The source holds these as a separate data set.
Test [3] relates to mouse middle cerebral artery occlusion (MCAO) stroke model. Particulars: in vivo.
In test [4] the test system is primary cortical neurons. The format is cell-based. This is another data set of the same source.
The test system of test [5] is mouse middle cerebral artery occlusion (MCAO) stroke model. Conditions: in vivo. This is another data set of the same source.
For test [6], the system named is primary cortical neurons. The format is cell-based. This is another data set of the same source.

From patent US20180127465A1 (priority 2015, published 2018) come the findings set out here.

`O=C1CC[C@@]2(O)[C@H]3Cc4ccc(O)c5c4[C@@]2(CCN3CC2CC2)[C@H]1O5` [NTX, naltrexone]: the “ROS production, in words” value in the test on primary cortical neurons [1] is reported as “did not show significant decrease in ROS production”. Also, in the test with primary cortical neurons [2], the “neuronal cell death (LDH), in words” value is given as “No statistical significant difference”.
For `C[C@@H](NC(=O)[C@@H](N)Cc1ccc(O)cc1)C(=O)NCC(=O)N[C@@H](Cc1ccccc1)C(=O)NNC(=O)[C@H](Cc1ccccc1)NC(=O)CNC(=O)[C@@H](C)NC(=O)[C@@H](N)Cc1ccc(O)cc1` [biphalin], in test [3], the “improvement of neurological score” value was determined as 25.5%. Besides, in the test with primary cortical neurons [4], the “less LDH release” value was 18.4% and the “relative neuronal death (LDH), in words” value is “significantly decreased relative neuronal death”. Further, in test [5], the “Horizontal Activity” value was found to be 760 ± 75, the “No. of Movements” value was determined as 42 ± 6, the “Rest Time” value worked out at 240 ± 7 s and the “Stereotypy Counts” value was 390 ± 46. In test [5], the “Total Distance” value came out at 650 ± 81 CM and the “Vertical Activity” value is recorded as 28 ± 3. In addition, in the test with primary cortical neurons [6], the “relative neuronal survival (MTT), in words” value was “significantly improved relative neuronal survival”. Also, in the test on primary cortical neurons [2], the “neuronal cell death (LDH), in words” value was “significantly decreased neuronal cell death”.
